Among the data in ChEMBL document CHEMBL1130965, “Inhibitors of farnesyl protein transferase. Synthesis and biological activity of amide and cyanoguanidine derivatives containing a 5,11-dihydro[1]benzthiepin, benzoxepin, and benzazepin [4,3-b]pyridine ring system” (Bioorg Med Chem Lett, 1998) are IC50 and inhibition values, retold here.

For orientation: IC50 means the concentration needed to halve the response being measured. A low value points to higher potency. The term inhibition denotes the share of the control response that was lost under treatment.

The target in assay [1] is T1, Protein farnesyltransferase (Homo sapiens, UniProt P49354+P49356). The assay is described as follows: In vitro FPT potency by measuring the ability to inhibit the transfer of [3H]farnesyl from farnesyl pyrophosphate to H-Ras-CLVS. Format: protein-complex assay.
The target in assay [2] is T1, Protein farnesyltransferase. The assay is described as follows: In vitro inhibition of Ras processing in COS cells. Format: functional, cell-based.
Assay [3] has the same target. Nature of the assay: In vitro inhibition of Ras processing by COS cells at 20 uM. Format: functional, cell-based.
Assay [4] has the same target. The assay is described as follows: In vitro inhibition of [3H]farnesyl incorporation into H-Ras-CLVS by farnesyl transferase at 1.2 uM. The class given is protein-complex assay.
For assay [5] the target is unchanged. The assay is described as follows: In vitro inhibition of [3H]farnesyl incorporation into H-Ras-CLVS by farnesyl transferase at 0.042 uM. Format: protein-complex assay.
Assay [6] has the same target. Nature of the assay: In vitro inhibition of [H]-farnesyl incorporation into H-Ras-CLVS by farnesyl transferase at 1.3 uM. Format: protein-complex assay.

In turn, `O=C(Cc1ccncc1)N1CCN(C2c3ccc(Cl)cc3S(=O)(=O)Cc3cccnc32)CC1` (stereo not given) yielded an IC50 in assay [1] of 1000 nM.

With `O=C(Cc1ccncc1)N1CCC(=C2c3ccc(Cl)cc3S(=O)(=O)Cc3cccnc32)CC1`, the IC50 in assay [1] came out at 560 nM.

In turn, `O=C(Cc1cc[n+]([O-])cc1)N1CCC(=C2c3ccc(Cl)cc3OCc3cc(Br)cnc32)CC1` had an IC50 in assay [1] of 110 nM.

`N#CN=C(NCc1ccncc1)N1CCC(=C2c3ccc(Cl)cc3SCc3cccnc32)CC1`: the results for the IC50 in assay [2] and in assay [1] were 1700 nM and 43 nM, respectively.

`O=C(Cc1cc[n+]([O-])cc1)N1CCC(=C2c3ccc(Cl)cc3OCc3cccnc32)CC1` came in with a concentration for half-maximal inhibition (IC50) in assay [1] of 1520 nM. The molecule further gave an inhibition in assay [3] of 41%.

On to `N#CN/C(=N\Cc1ccc[n+]([O-])c1)N1CCN(C2c3ccc(Cl)cc3SCc3cccnc32)CC1` (stereo not given), for which the IC50 in assay [1] worked out at 140 nM. This counts as sub-micromolar.

For `O=C(Cc1cc[n+]([O-])cc1)N1CCC(=C2c3ccc(Cl)cc3S(=O)(=O)Cc3cccnc32)CC1`, the inhibition in assay [4] was 30%.

As to `O=C(Cc1ccncc1)N1CCN(C2c3ccc(Cl)cc3SCc3cccnc32)CC1` (stereo in doubt; 40), inhibition in assay [1] was half-maximal at 1000 nM (IC50).

In turn, `N#CN/C(=N\Cc1ccc[n+]([O-])c1)N1CCC(=C2c3ccc(Cl)cc3SCc3cccnc32)CC1` showed an IC50 in assay [1] of 38 nM. This molecule also yielded an inhibition in assay [3] of 26%.

In assay [1], `O=C(CC1CCNCC1)N1CCC(=C2c3ccc(Cl)cc3SCc3cccnc32)CC1` registered a concentration for half-maximal inhibition (IC50) of 590 nM.

Regarding `CN1Cc2cccnc2C(N2CCN(C(=O)Cc3cc[n+]([O-])cc3)CC2)c2ccc(Cl)cc21` (stereo not given), the results for the 50% inhibitory concentration (IC50) in assay [2] and in assay [1] were 20000 nM and 2700 nM, respectively.

For the molecule `NC(=O)N1CCC(CC(=O)N2CCC(=C3c4ccc(Cl)cc4SCc4cccnc43)CC2)CC1`, the concentration for half-maximal inhibition (IC50) in assay [2] came out at 3800 nM; in assay [1] it was 920 nM.

Regarding `O=C(CSc1cc[n+]([O-])cc1)N1CCC(=C2c3ccc(Cl)cc3SCc3cccnc32)CC1`, the IC50 in assay [2] was determined as 5000 nM; in assay [1], 620 nM.

With `N#CN/C(=N\Cc1ccncc1)N1CCC(=C2c3ccc(Cl)cc3OCc3cccnc32)CC1`, the inhibition in assay [5] came out at 25%.

As to `CN1Cc2cccnc2C(N2CCN(C(=O)Cc3ccncc3)CC2)c2ccc(Cl)cc21` (stereo not given), the IC50 in assay [1] was determined as 840 nM. The molecule further registered an inhibition in assay [3] of 0%.

In the case of `O=C(Cc1cc[n+]([O-])cc1)N1CCN(C2c3ccc(Cl)cc3SCc3cccnc32)CC1` (stereo not given), the figures for the concentration for half-maximal inhibition (IC50) in assay [2] and in assay [1] were 10000 nM and 79 nM, respectively.

In the case of `O=C(Cc1ccncc1)N1CCC(=C2c3ccc(Cl)cc3SCc3cccnc32)CC1`, the IC50 in assay [2] turned out to be 4200 nM; in assay [1], 190 nM.

Regarding `O=C(Cc1cc[n+]([O-])cc1)N1CCN(C2c3ccc(Cl)cc3S(=O)(=O)Cc3cccnc32)CC1` (stereo not given), in assay [1], the IC50 stood at 3400 nM.

The molecule `O=C(Cc1ccncc1)N1CCN(C2c3ccc(Cl)cc3SCc3cccnc32)CC1` (stereo in doubt; 36) came in with an IC50 in assay [1] of 32 nM. This IC50 is about 110-fold lower than that of the molecule before.

In turn, `CN1CCC(CC(=O)N2CCN(C3c4ccc(Cl)cc4SCc4cccnc43)CC2)CC1` (stereo not given) came in with an IC50 in assay [1] of 2100 nM.

As for `CN1Cc2cccnc2C(N2CCN(C(=O)CC3CCNCC3)CC2)c2ccc(Cl)cc21` (stereo not given), the inhibition in assay [6] came to 10%.

`NC(=O)N1CCC(CC(=O)N2CCN(C3c4ccc(Cl)cc4SCc4cccnc43)CC2)CC1` (stereo not given) showed a half-maximal inhibitory concentration (IC50) in assay [1] of 1120 nM. This counts as single-digit micromolar.

`O=C(CC1CCNCC1)N1CCN(C2c3ccc(Cl)cc3SCc3cccnc32)CC1` (stereo not given) returned an IC50 in assay [1] of 1100 nM.

In the case of `CN1CCC(CC(=O)N2CCC(=C3c4ccc(Cl)cc4SCc4cccnc43)CC2)CC1`, the midpoint of inhibition in assay [1], the IC50, lay at 1790 nM.

The molecule `N#CN/C(=N\Cc1ccncc1)N1CCN(C2c3ccc(Cl)cc3SCc3cccnc32)CC1` (stereo not given) showed an IC50 in assay [1] of 61 nM.

On to `CN1Cc2cccnc2C(N2CCN(/C(=N/Cc3ccncc3)NC#N)CC2)c2ccc(Cl)cc21` (stereo not given), for which, in assay [1], the IC50 amounted to 140 nM. The same molecule displayed an inhibition in assay [3] of 10%.

On to `O=C(CC1CCNCC1)N1CCC(=C2c3ccc(Cl)cc3S(=O)(=O)Cc3cccnc32)CC1`, for which, in assay [4], the inhibition stood at 28%.

As for `O=C(Cc1cc[n+]([O-])cc1)N1CCC(=C2c3ccc(Cl)cc3SCc3cccnc32)CC1`, the half-maximal inhibitory concentration (IC50) in assay [2] was 10000 nM; in assay [1] it was 520 nM.

For the molecule `NC(=O)N1CCC(CC(=O)N2CCC(=C3c4ccc(Cl)cc4S(=O)(=O)Cc4cccnc43)CC2)CC1`, the inhibition in assay [4] worked out at 35%.
